pIC50, pKi: −log10 of the molar value. Where a name gives a salt, the structure may show the parent alone. Read-outs that look alike come from different tables or passages of the source.
Columns and labels:
[1] = tested on: arterial blood pressure of normotensive Wistar rats; assay: Influence on blood pressure in normotensive anesthetized rats after i.v. administration; assay type: in vivo, rat; conditions: for Diastolic blood pressure / Systolic blood pressure: mean, n = 6
How it was run: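 Normotensive rats were given thiopental (75 mg/kg) intraperitoneally as anesthesia. A heparinized saline-filled polyethylene tube was placed in the left carotid artery, and blood pressure was recorded with a PowerLab Apparatus. Compounds dissolved in ethyl alcohol 5% − kolliphor 5% − water 90% were injected intravenously at 1 mL/kg after 20 min of stabilization. Pressures were compared by two-way ANOVA with Sidak's post-hoc test.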

[2] = target: T1, human adrenergic receptor α1B (Homo sapiens, UniProt P35368); assay: Intrinsic activity, aequorin luminescence functional assay at α1B-AR; assay type: cell-based; conditions: for α1B-AR Profile: agonist/antagonist profile; for pIC50: cells expressing aequorin and human α1B, against phenylephrine, means of three independent experiments in duplicates; for Selectivity Ratio α1A/α1B: selectivity for α1B-AR (IC50(α1A-AR)/IC50(α1B-AR))
T1 sequence (P35368 1-520): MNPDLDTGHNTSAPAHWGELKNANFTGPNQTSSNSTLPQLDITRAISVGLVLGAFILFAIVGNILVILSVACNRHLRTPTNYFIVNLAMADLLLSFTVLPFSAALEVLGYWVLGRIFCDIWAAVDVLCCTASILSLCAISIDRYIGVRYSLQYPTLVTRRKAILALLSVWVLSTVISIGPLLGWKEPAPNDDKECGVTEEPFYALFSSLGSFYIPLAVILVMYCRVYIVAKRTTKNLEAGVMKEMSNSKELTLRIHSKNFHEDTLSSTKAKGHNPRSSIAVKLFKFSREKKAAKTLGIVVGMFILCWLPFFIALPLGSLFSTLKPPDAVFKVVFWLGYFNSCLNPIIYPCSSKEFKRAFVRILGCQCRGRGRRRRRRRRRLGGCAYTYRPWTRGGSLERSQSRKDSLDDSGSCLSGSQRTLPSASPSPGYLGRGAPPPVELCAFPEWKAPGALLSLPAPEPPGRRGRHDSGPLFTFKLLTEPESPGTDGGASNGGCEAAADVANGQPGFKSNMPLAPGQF

[3] = target: α1-adrenoceptors (α1-ARs), rat cerebral cortex; assay: Radioligand binding assay with [3H]-prazosin, affinity for α1-ARs; conditions: three independent experiments in duplicates, read-out: α1-adrenoceptor affinity Ki
[4] = target: T2, human adrenergic receptor α1A (Homo sapiens, UniProt P35348); assay: Intrinsic activity, aequorin luminescence functional assay at α1A-AR; assay type: cell-based; conditions: for α1A-AR Profile: agonist/antagonist profile; for pIC50: cells expressing aequorin and human α1A, against phenylephrine, means of three independent experiments in duplicates; for Selectivity Ratio α1B/α1A: selectivity for α1A-AR (IC50(α1B-AR)/IC50(α1A-AR))
T2 sequence (P35348 1-466): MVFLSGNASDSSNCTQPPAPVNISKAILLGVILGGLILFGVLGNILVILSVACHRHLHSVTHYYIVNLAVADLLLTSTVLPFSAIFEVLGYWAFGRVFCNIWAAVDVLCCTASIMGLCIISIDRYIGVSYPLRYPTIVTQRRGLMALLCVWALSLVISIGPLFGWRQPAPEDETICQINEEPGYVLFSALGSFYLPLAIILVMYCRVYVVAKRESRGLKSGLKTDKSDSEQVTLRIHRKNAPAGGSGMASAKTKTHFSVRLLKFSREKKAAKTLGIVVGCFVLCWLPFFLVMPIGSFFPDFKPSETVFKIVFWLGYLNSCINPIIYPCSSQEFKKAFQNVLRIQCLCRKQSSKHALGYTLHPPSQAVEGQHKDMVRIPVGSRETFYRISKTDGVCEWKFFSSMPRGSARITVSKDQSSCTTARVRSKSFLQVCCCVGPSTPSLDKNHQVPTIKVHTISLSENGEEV

[5] = target: α1-adrenoceptors (α1-ARs), rat cerebral cortex; conditions: cited from earlier work
α1D- and α1A-AR subtype = tested on: α1D- and α1A-AR subtype; parameters: method as in PMID 21753885; conditions: cited from earlier work
[6] = 2.0 mg/kg i.v., 0 min (initial, before administration)
[7] = i.v., normotensive anesthetized rats
[8] = published previously, read-out: α1-adrenoceptor affinity Ki
[9] = 1.0 mg/kg i.v., 0 min (initial, before administration)

| α1B-AR Profile [2] | pIC50 [2] | Selectivity Ratio α1A/α1B [2] | pKi [3] | melting point [°C] | Compound | Diastolic blood pressure [1, 6] | Systolic blood pressure [1, 6] | Diastolic blood pressure ([1]; 2.0 mg/kg i.v., 5 min) | Systolic blood pressure ([1]; 2.0 mg/kg i.v., 5 min) | Diastolic blood pressure ([1]; 2.0 mg/kg i.v., 10 min) | Systolic blood pressure ([1]; 2.0 mg/kg i.v., 10 min) | Diastolic blood pressure ([1]; 2.0 mg/kg i.v., 20 min) | Systolic blood pressure ([1]; 2.0 mg/kg i.v., 20 min) | Diastolic blood pressure ([1]; 2.0 mg/kg i.v., 30 min) | Systolic blood pressure ([1]; 2.0 mg/kg i.v., 30 min) | Diastolic blood pressure ([1]; 2.0 mg/kg i.v., 40 min) | Systolic blood pressure ([1]; 2.0 mg/kg i.v., 40 min) | Diastolic blood pressure ([1]; 2.0 mg/kg i.v., 50 min) | Systolic blood pressure ([1]; 2.0 mg/kg i.v., 50 min) | Diastolic blood pressure ([1]; 2.0 mg/kg i.v., 60 min) | further results |
| --- | --- | --- | --- | --- | --- | --- | --- | --- | --- | --- | --- | --- | --- | --- | --- | --- | --- | --- | --- | --- | --- |
| Antagonist | 6.42 | 8.31 | 6.57 | 217 to 219 | Cc1ccc(N2CCN(CC(O)CN3C(=O)N(Cc4ccc(Cl)cc4Cl)C(=O)C3(C)C)CC2)cc1C.Cl (stereo not shown) [Compound 12, 3-(2,4-dichlorobenzyl)-1-(3-(4-(3,4-dimethylphenyl)piperazin-1-yl)-2-hydroxypropyl)-5,5-dimethylimidazolidine-2,4-dione hydrochloride] | 104.2 | 139.0 | 98.2 | 134.7 | 99.5 | 134.5 | 97.8 | 132.0 | 96.7 | 131.0 | 97.0 | 129.0 | 96.8 | 130.0 | 97.3 | α1A-AR Profile [4]: Antagonist; pIC50 [4]: 5.50; Selectivity Ratio α1B/α1A [4]: 0.12 |
| Antagonist | 6.48 | 0.42 | 7.54 | 144 to 146 | COc1ccccc1N1CCN(CC(O)CN2C(=O)N(Cc3ccc(Cl)cc3Cl)C(=O)C2(C)C)CC1.Cl (stereo not shown) [Compound 13, 3-(2,4-dichlorobenzyl)-1-(2-hydroxy-3-(4-(2-methoxyphenyl)piperazin-1-yl)propyl)-5,5-dimethylimidazolidine-2,4-dione hydrochloride] | 98.0 | 130.7 | 61.2 | 102.8 | 70.8 | 107.7 | 77.3 | 109.3 | 82.2 | 112.7 | 82.8 | 113.3 | 82.2 | 117.2 | 83.7 | Systolic blood pressure ([1]; 2.0 mg/kg i.v., 60 min): 118.0; effect on systolic and diastolic blood pressure (in words) [1, 7]: statistically significant reduction; α1A-AR Profile [4]: Antagonist; pIC50 [4]: 6.86; selectivity for α1A-AR over α1B-AR ([4]; from IC50 ratio): ~ 2 fold; Selectivity Ratio α1B/α1A [4]: 2.39 |
| Antagonist | 5.86 | 0.89 | 6.54 | 177 to 179 | COc1cccc(N2CCN(CC(O)CN3C(=O)N(Cc4ccc(Cl)cc4Cl)C(=O)C3(C)C)CC2)c1.Cl (stereo not shown) [Compound 14, 3-(2,4-dichlorobenzyl)-1-(2-hydroxy-3-(4-(3-methoxyphenyl)piperazin-1-yl)propyl)-5,5-dimethylimidazolidine-2,4-dione hydrochloride] | 100.8 | 132.5 | 100.3 | 132.3 | 100.7 | 132.0 | 96.0 | 129.3 | 96.0 | 127.7 | 97.3 | 125.8 | 94.3 | 124.5 | 92.0 | Systolic blood pressure ([1]; 2.0 mg/kg i.v., 60 min): 124.3; α1A-AR Profile [4]: Antagonist; pIC50 [4]: 5.91; Selectivity Ratio α1B/α1A [4]: 1.12 |
|  |  |  |  |  | COc1ccccc1N1CCN(CCCCCN2C(=O)N(Cc3ccccc3)C(=O)C2(C)C)CC1 [PI] |  |  |  |  |  |  |  |  |  |  |  |  |  |  |  | pKi ([5]; lead structure, Figure 2, read-out: α1R Ki): 7.37 |
|  |  |  |  |  | COc1cc2nc(N3CCN(C(=O)c4ccco4)CC3)nc(N)c2cc1OC [Prazosin, prazosin hydrochloride] |  |  |  |  |  |  |  |  |  |  |  |  |  |  |  | pKi [5, 8]: 9.62 |
|  |  |  |  |  | COc1ccccc1N1CCN(CCCNc2cc(=O)n(C)c(=O)n2C)CC1 [Urapidil, urapidil hydrochloride, reference compound] |  |  |  |  |  |  |  |  |  |  |  |  |  |  |  | Diastolic blood pressure [1, 9]: 93.0; Systolic blood pressure [1, 9]: 127.3; Diastolic blood pressure ([1]; 1.0 mg/kg i.v., 5 min): 77.5; Systolic blood pressure ([1]; 1.0 mg/kg i.v., 5 min): 111.3; Diastolic blood pressure ([1]; 1.0 mg/kg i.v., 10 min): 75.5; Systolic blood pressure ([1]; 1.0 mg/kg i.v., 10 min): 109.5; Diastolic blood pressure ([1]; 1.0 mg/kg i.v., 20 min): 76.0; Systolic blood pressure ([1]; 1.0 mg/kg i.v., 20 min): 110.2; Diastolic blood pressure ([1]; 1.0 mg/kg i.v., 30 min): 78.8; Systolic blood pressure ([1]; 1.0 mg/kg i.v., 30 min): 112.2; Diastolic blood pressure ([1]; 1.0 mg/kg i.v., 40 min): 79.2; Systolic blood pressure ([1]; 1.0 mg/kg i.v., 40 min): 112.7; Diastolic blood pressure ([1]; 1.0 mg/kg i.v., 50 min): 80.8; Systolic blood pressure ([1]; 1.0 mg/kg i.v., 50 min): 114.0; Diastolic blood pressure ([1]; 1.0 mg/kg i.v., 60 min): 81.2; Systolic blood pressure ([1]; 1.0 mg/kg i.v., 60 min): 115.0; lowest hypotensive (effective) dose [1, 7]: 1.0 mg/kg; pKi [5, 8]: 6.89 |
|  |  |  |  |  | COc1ccccc1N1CCN(CC(O)COc2cccc3ccccc23)CC1 (stereo not shown) [naftopidil] |  |  |  |  |  |  |  |  |  |  |  |  |  |  |  | higher affinity for α1D- than for α1A-AR subtype (α1D- and α1A-AR subtype): 3 fold |

From publication PMC10706087, “The Subtype Selectivity in Search of Potent Hypotensive Agents among 5,5-Dimethylhydantoin Derived α1-Adrenoceptors Antagonists” (International Journal of Molecular Sciences, 2023)
